Source: patent US8178534B2, “cMET inhibitors” (Takeda Pharmaceutical Company Limited, priority 2008, dated 2012)

Key:
[1] = biological target: T1, cMET enzyme (amino acids 1023-1360) (Homo sapiens, UniProt P08581); experiment: Determination of inhibition of cMET (capillary electrophoresis, phosphorylated peptide product); format: biochemical; conditions: 1.2 nM cMET, 50 μM ATP, 2 μM FL-2 peptide, 2 hours room temperature
T1 construct: The cMET enzyme (amino acids 1023-1360) nominally at 24 μM was held at −80° C. until use; His tag (N, cleaved yes); made in house; host or cells: Sf9 cells
Method: The inhibitory property of a compound relative to cMET catalysis was determined by use of capillary electrophoresis with fluorescence quantification of a phosphorylated peptide product for cMET. The cMET enzyme (amino acids 1023-1360) nominally at 24 μM was held at −80° C. until use, in a buffer containing 25 mM Tris-HCl pH 8.5, 150 mM NaCl, 3 mM DTT and 10% glycerol. […] Following purification, the tag was removed and enzyme concentrated. […] To activate the enzyme fully, frozen cMET was thawed quickly and activated with the addition of assay buffer (50 mM HEPES pH 7.5, 10 mM NaCl, 10 mM MgCl2, 0.01% Brij® 35), 1.25 mM ATP, 5 mM MgCl2 and 5 mM DTT at a cMET concentration of 2.4 μM followed by a 30 minute incubation at room temperature. […] Next, cMET enzyme (1.2 nM final) was added and the system incubated at room temperature for 20 minutes. Catalysis was initiated by the addition of ATP (50 μM final). Assays were incubated at room temperature for 2 hours then quenched by the addition of EDTA. Phosphorylated peptide product was quantified by monitoring fluorescence during capillary electrophoresis with Caliper LifeSciences LabChip 3000 under the following settings: base pressure=−0.1 psi, screen pressure=−1.2 psi, downstream voltage=−500 V, upstream voltage=−2300 V, chip type=TC372. The elution buffer was identical to the assay buffer except for the absence of DTT, FL-2 and ATP and the addition of 0.1% coating reagent (Caliper). […] Peak height was quantified and used to determine enzyme velocities.
IC50 values were calculated by non-linear least squares curve fitting of the standard IC50 equation to background-corrected cMET velocity versus compound concentration.

MKN45 = experiment: Inhibition of cell viability (MTS), MKN45; format: cell-based; conditions: Homo sapiens, 96 hours incubation
Method: (§1) Cells were maintained at 37° C. in a humidified atmosphere containing 5%-8% CO2 following the instructions of the supplier (American Type Culture Collection (Rockville, Md.)). Inhibition of cell viability was determined for a panel of tumor cell lines (MKN45, EBC1 and A549), using the soluble tetrazolium salt, MTS (Promega, Madison, Wis.). Cells were seeded at 2,000-7,500 cells/well in 96-well tissue culture plates and were allowed to attach for approximately 24 hours prior to addition of compounds or DMSO vehicle. […] Cells were treated in duplicate with test compounds. Compounds were serially diluted (1:2.5) from column 1 to 11 and column 12 contained DMSO vehicle. Compounds were diluted into cell growth medium then compound solution was added to cells. Equal amounts of DMSO were added to cells (final concentration is 0.5%). After background correction and normalization against DMSO-treated cells, EC50 values were calculated using non-linear curve-fitting of the cell viability as a function of compound concentration. The MKN45 and EBC1 cell lines contain high levels of phospho-Met and are dependent on cMET for proliferation, whereas the A549 line is used as negative control.
(§2) EC50 values may be calculated by non-linear curve fitting of the compound concentrations and fluorescence intensities to the standard EC50 equation.

EBC1 = experiment: Inhibition of cell viability (MTS), EBC1; format: cell-based; conditions: Homo sapiens, 96 hours incubation
Method: as §1, §2

A549 = experiment: Inhibition of cell viability (MTS), A549 (negative control line); format: cell-based; conditions: Homo sapiens, A549 cells (negative control), 96 hours incubation
Method: as §1, §2

T1 sequence (P08581 1023-1360): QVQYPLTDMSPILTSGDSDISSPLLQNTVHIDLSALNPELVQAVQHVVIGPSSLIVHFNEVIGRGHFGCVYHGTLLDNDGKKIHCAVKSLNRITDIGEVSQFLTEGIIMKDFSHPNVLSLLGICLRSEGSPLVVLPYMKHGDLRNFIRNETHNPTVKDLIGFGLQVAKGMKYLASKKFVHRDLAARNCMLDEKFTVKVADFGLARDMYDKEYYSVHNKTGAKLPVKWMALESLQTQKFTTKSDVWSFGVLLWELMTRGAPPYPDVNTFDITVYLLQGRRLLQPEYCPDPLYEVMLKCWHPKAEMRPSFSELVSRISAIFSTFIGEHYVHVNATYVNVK

Row | SMILES | IC50 [1] [nM] | EC50 (MKN45; MKN-45, 96 h, MKN45 cells) [nM] | EC50 (A549; A549, 96 h) [nM] | EC50 (EBC1; EBC-1, 96 h, EBC1 cells) [nM] | EC50 (MKN45; MKN-45, MKN45 cells) [nM] | EC50 (EBC1; EBC-1, EBC1 cells) [nM] | EC50 (A549) [nM]
1 | O=C(Nc1cn2nc(Sc3nnc4ccc(C#CCO)cn34)ccc2n1)C1CC1 [Compound 37, N-(6-(6-(3-hydroxyprop-1-ynyl)-[1,2,4]triazolo[4,3-a]pyridin-3-ylthio)imidazo[1,2-b]pyridazin-2-yl)cyclopropanecarboxamide] | 30 to 59 | 250 to 630 | > 50000 | 100 to 199 | – | – | –
2 | O=C(Nc1cn2nc(Sc3nnc4ccc(-c5nn[nH]n5)cn34)ccc2n1)C1CC1 [Compound 38, N-(6-(6-(2H-tetrazol-5-yl)-[1,2,4]triazolo[4,3-a]pyridin-3-ylthio)imidazo[1,2-b]pyridazin-2-yl)cyclopropanecarboxamide] | > 100 | > 630 | > 50000 | > 200 | – | – | –
3 | COCc1nc(-c2ccc3nnc(Sc4ccc5nc(NC(=O)C6CC6)cn5n4)n3c2)no1 [Compound 39, N-(6-(6-(5-(methoxymethyl)-1,2,4-oxadiazol-3-yl)-[1,2,4]triazolo[4,3-a]pyridin-3-ylthio)imidazo[1,2-b]pyridazin-2-yl)cyclopropanecarboxamide] | 60 to 100 | 100 to 249 | 600 to 1600 | 35 to 99 | – | – | –
4 | CC(C)(O)c1ccc2nnc(Sc3ccc4nc(NC(=O)C5CC5)cn4n3)n2c1 [Compound 40, N-(6-(6-(2-hydroxypropan-2-yl)-[1,2,4]triazolo[4,3-a]pyridin-3-ylthio)imidazo[1,2-b]pyridazin-2-yl)cyclopropanecarboxamide] | > 100 | – | – | – | > 630 | > 200 | > 50000
5 | O=C(Nc1cn2nc(Sc3nnc4ccc(C(F)(F)F)cn34)ccc2n1)C1CC1 [Compound 41, N-(6-(6-(trifluoromethyl)-[1,2,4]triazolo[4,3-a]pyridin-3-ylthio)imidazo[1,2-b]pyridazin-2-yl)cyclopropanecarboxamide] | 60 to 100 | 100 to 249 | 8000 to 25000 | 35 to 99 | – | – | –
6 | O=C(Nc1cn2nc(Sc3nnc4ccc(-c5cccc(F)c5)cn34)ccc2n1)C1CC1 [Compound 44, N-(6-(6-(3-fluorophenyl)-[1,2,4]triazolo[4,3-a]pyridin-3-ylthio)imidazo[1,2-b]pyridazin-2-yl)cyclopropanecarboxamide] | < 30 | < 100 | 600 to 1600 | < 35 | – | – | –
7 | C[C@@H](c1ccc2nc(NC(=O)C3CC3)cn2n1)c1nnc2ccc(-c3cnn(C)c3)cn12 [Compound 50, (S)—N-(6-(1-(6-(1-methyl-1H-pyrazol-4-yl)-[1,2,4]triazolo[4,3-a]pyridin-3-yl)ethyl)imidazo[1,2-b]pyridazin-2-yl)cyclopropanecarboxamide] | < 30 | 30 to 59 | > 50000 | < 30 | – | – | –
8 | C[C@H](c1ccc2nc(NC(=O)C3CC3)cn2n1)c1nnc2ccc(-c3cnn(C)c3)cn12 [Compound 51, (R)—N-(6-(1-(6-(1-methyl-1H-pyrazol-4-yl)-[1,2,4]triazolo[4,3-a]pyridin-3-yl)ethyl)imidazo[1,2-b]pyridazin-2-yl)cyclopropanecarboxamide] | > 100 | > 100 | > 50000 | > 100 | – | – | –
9 | CC(c1ccc2nc(NC(=O)C3CC3)cn2n1)c1nnc2ccccn12 (stereo not shown) [Compound 52, N-(6-(1-([1,2,4]triazolo[4,3-a]pyridin-3-yl)ethyl)imidazo[1,2-b]pyridazin-2-yl)cyclopropanecarboxamide] | > 100 | > 100 | > 50000 | > 100 | – | – | –
10 | Cc1ccc2nnc(C(C)c3ccc4nc(NC(=O)C5CC5)cn4n3)n2c1 (stereo not shown) [Compound 53, N-(6-(1-(6-methyl-[1,2,4]triazolo[4,3-a]pyridin-3-yl)ethyl)imidazo[1,2-b]pyridazin-2-yl)cyclopropanecarboxamide] | 250 to 630 | 250 to 630 | > 50000 | 250 to 630 | – | – | –
11 | COc1ccc(-c2ccc3nnc(C(C)c4ccc5nc(NC(=O)C6CC6)cn5n4)n3c2)cc1 (stereo not shown) [Compound 56, N-(6-(1-(6-(4-methoxyphenyl)-[1,2,4]triazolo[4,3-a]pyridin-3-yl)ethyl)imidazo[1,2-b]pyridazin-2-yl)cyclopropanecarboxamide] | < 30 | < 30 | > 50000 | < 30 | – | – | –
12 | CC(c1ccc2nc(NC(=O)C3CC3)cn2n1)c1nnc2ccc(-c3cccc(C#N)c3)cn12 (stereo not shown) [Compound 57, N-(6-(1-(6-(3-cyanophenyl)-[1,2,4]triazolo[4,3-a]pyridin-3-yl)ethyl)imidazo[1,2-b]pyridazin-2-yl)cyclopropanecarboxamide] | < 30 | < 30 | > 50000 | < 30 | – | – | –

Second part, led by results:

Row | IC50 [1] [nM] | EC50 (MKN45; MKN-45, 96 h, MKN45 cells) [nM] | EC50 (A549; A549, 96 h) [nM] | SMILES | EC50 (EBC1; EBC-1, 96 h, EBC1 cells) [nM] | EC50 (MKN45; MKN-45, MKN45 cells) [nM] | EC50 (EBC1; EBC-1, EBC1 cells) [nM] | EC50 (A549) [nM]
13 | > 100 | > 630 | > 19500 | CC(C)CNC(=O)c1ccc2nnc(Sc3ccc4nc(NC(=O)C5CC5)cn4n3)n2c1 [Compound 35, 3-(2-(cyclopropanecarboxamido)imidazo[1,2-b]pyridazin-6-ylthio)-N-isobutyl-[1,2,4]triazolo[4,3-a]pyridine-6-carboxamide] | 100 to 199 | – | – | –
14 | < 30 | 250 to 630 | > 50000 | O=C(Nc1cn2nc(Sc3nnc4ccc(-c5ccc(N6CCNCC6)cc5)cn34)ccc2n1)C1CC1 [Compound 36, N-(6-(6-(4-(piperazin-1-yl)phenyl)-[1,2,4]triazolo[4,3-a]pyridin-3-ylthio)imidazo[1,2-b]pyridazin-2-yl)cyclopropanecarboxamide] | 35 to 99 | – | – | –
15 | 60 to 100 | 100 to 249 | > 50000 | Cc1ccc2nnc(Sc3ccc4nc(NC(=O)C5CC5)cn4n3)n2c1 [Compound 42, N-(6-(6-methyl-[1,2,4]triazolo[4,3-a]pyridin-3-ylthio)imidazo[1,2-b]pyridazin-2-yl)cyclopropanecarboxamide] | 35 to 99 | – | – | –
16 | 30 to 59 | 60 to 100 | > 50000 | O=C(Nc1cn2nc(C(F)(F)c3nnc4ccc(-c5cnoc5)cn34)ccc2n1)C1CC1 [Compound 46, N-(6-(difluoro(6-(isoxazol-4-yl)-[1,2,4]triazolo[4,3-a]pyridin-3-yl)methyl)imidazo[1,2-b]pyridazin-2-yl)cyclopropanecarboxamide] | 60 to 100 | – | – | –
17 | < 30 | < 30 | > 50000 | O=C(Nc1cn2nc(C(F)(F)c3nnc4ccc(-c5cnn(CCO)c5)cn34)ccc2n1)C1CC1 [Compound 47, N-(6-(difluoro(6-(1-(2-hydroxyethyl)-1H-pyrazol-4-yl)-[1,2,4]triazolo[4,3-a]pyridin-3-yl)methyl)imidazo[1,2-b]pyridazin-2-yl)cyclopropanecarboxamide] | < 30 | – | – | –
18 | < 30 | < 30 | > 50000 | CC(c1ccc2nc(NC(=O)C3CC3)cn2n1)c1nnc2ccc(-c3ccc(F)cc3)cn12 (stereo not shown) [Compound 55, N-(6-(1-(6-(4-fluorophenyl)-[1,2,4]triazolo[4,3-a]pyridin-3-yl)ethyl)imidazo[1,2-b]pyridazin-2-yl)cyclopropanecarboxamide] | < 30 | – | – | –
19 | < 30 | < 30 | > 50000 | CNC(=O)c1ccc(-c2ccc3nnc(C(C)c4ccc5nc(NC(=O)C6CC6)cn5n4)n3c2)cc1F (stereo not shown) [Compound 58, 4-(3-(1-(2-(cyclopropanecarboxamido)imidazo[1,2-b]pyridazin-6-yl)ethyl)-[1,2,4]triazolo[4,3-a]pyridin-6-yl)-2-fluoro-N-methylbenzamide] | < 30 | – | – | –
